According to ChEMBL document CHEMBL1128858, “Z-()-1-azabicyclo[2.2.1]heptan-3-one, O-(3-aryl-2-propynyl) oximes as potential m1-subtype selective muscarinic agonists” (Bioorg Med Chem Lett, 1995):

Assays:
[1] = molecular target: Muscarinic acetylcholine receptor; assay: Binding affinity towards muscarinic receptor using [3H]quinuclidinyl benzilate (QNB) to label antagonist sites in membrane preparations from rat neocortex
[2] = molecular target: T1, Muscarinic acetylcholine receptor (Rattus norvegicus) (UniProt P08482+P08483+P08485+P08911+P10980); assay: Ratio of QNB/CMD binding affinities to predict agonistic efficacy at muscarinic receptor; type: protein assay
[3] = molecular target: Muscarinic acetylcholine receptor; assay: Binding affinity towards muscarinic receptor using [3H]cis-methyldioxolane (CMD) to label agonist sites in membrane preparations from rat neocortex; type: tissue-based
[4] = molecular target: T2, Muscarinic acetylcholine receptor M5 (Homo sapiens) (UniProt P08912); assay: Ability to stimulate inositol phosphate(PI) accumulation in CHO cells expressing human m5 receptor (max. concentration. 100 uM); type: functional, cell-based
T2 sequence (whole entry): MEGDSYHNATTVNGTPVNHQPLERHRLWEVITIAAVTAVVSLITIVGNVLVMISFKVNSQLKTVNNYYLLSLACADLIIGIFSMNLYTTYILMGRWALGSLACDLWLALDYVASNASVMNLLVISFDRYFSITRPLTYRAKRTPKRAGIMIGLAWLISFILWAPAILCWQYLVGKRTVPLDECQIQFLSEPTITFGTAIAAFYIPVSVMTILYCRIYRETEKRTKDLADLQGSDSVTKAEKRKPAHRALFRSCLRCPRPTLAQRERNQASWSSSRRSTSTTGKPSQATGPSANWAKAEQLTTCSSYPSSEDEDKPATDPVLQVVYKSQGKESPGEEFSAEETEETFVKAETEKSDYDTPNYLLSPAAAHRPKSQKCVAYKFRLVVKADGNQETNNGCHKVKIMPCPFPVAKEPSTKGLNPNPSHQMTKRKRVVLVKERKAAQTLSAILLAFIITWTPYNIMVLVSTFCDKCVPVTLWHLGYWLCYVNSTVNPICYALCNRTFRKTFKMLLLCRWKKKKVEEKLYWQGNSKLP

[5] = molecular target: T3, Muscarinic acetylcholine receptor M2 (Homo sapiens) (UniProt P08172); assay: Inhibitory activity against forskolin-stimulated accumulation of cyclic adenosine monophosphate (cAMP) in CHO cells expressing human m2 receptor (max. concentration. 1 mM); type: functional, cell-based
T3 sequence (whole entry): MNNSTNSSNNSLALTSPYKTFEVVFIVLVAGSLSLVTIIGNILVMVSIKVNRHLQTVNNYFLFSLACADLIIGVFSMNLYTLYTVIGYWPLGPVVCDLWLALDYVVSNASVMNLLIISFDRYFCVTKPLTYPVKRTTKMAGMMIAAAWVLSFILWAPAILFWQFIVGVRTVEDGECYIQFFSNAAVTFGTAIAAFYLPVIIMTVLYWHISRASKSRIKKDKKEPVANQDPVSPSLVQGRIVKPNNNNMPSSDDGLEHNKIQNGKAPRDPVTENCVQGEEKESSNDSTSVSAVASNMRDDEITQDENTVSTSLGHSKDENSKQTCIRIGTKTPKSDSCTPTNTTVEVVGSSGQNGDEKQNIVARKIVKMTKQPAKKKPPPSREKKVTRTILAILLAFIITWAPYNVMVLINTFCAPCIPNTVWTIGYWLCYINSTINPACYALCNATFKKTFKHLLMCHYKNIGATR

[6] = molecular target: T4, Muscarinic acetylcholine receptor M4 (Homo sapiens) (UniProt P08173); assay: Inhibitory activity against forskolin-stimulated accumulation of cyclic adenosine monophosphate (cAMP) in CHO cells expressing human m4 receptor (max. concentration. 1 mM); type: functional, cell-based
T4 sequence (whole entry): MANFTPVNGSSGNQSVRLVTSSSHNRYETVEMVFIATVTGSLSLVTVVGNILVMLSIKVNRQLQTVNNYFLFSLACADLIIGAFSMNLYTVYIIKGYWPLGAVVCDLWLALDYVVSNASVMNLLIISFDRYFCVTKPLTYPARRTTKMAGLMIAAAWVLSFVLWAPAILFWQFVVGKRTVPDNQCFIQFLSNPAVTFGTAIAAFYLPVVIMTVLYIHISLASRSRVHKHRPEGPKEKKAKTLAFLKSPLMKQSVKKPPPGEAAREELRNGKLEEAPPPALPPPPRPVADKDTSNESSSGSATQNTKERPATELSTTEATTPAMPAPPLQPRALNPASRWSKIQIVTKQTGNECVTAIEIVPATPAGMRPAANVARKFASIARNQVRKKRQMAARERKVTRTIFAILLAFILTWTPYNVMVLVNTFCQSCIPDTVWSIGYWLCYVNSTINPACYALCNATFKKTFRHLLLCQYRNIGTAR

[7] = molecular target: T1, Muscarinic acetylcholine receptor (Rattus norvegicus); assay: Binding affinity towards muscarinic receptor using [3H]quinuclidinyl benzilate (QNB) to label antagonist sites in membrane preparations from rat neocortex at 100 nM
[8] = molecular target: T1, Muscarinic acetylcholine receptor (Rattus norvegicus); assay: Binding affinity towards muscarinic receptor using [3H]cis-methyldioxolane (CMD) to label agonist sites in membrane preparations from rat neocortex at 1 uM; type: tissue-based
[9] = molecular target: T1, Muscarinic acetylcholine receptor (Rattus norvegicus); assay: Binding affinity towards muscarinic receptor using [3H]cis-methyldioxolane (CMD) to label agonist sites in membrane preparations from rat neocortex at 100 nM; type: tissue-based

Row | Compound | IC50 [1] [nM] | Ratio [2] | IC50 [3] [nM] | further results
1 | Clc1cccc(C#CCO/N=C2\CN3CCC2C3)c1 (stereo not given) | 3882 | 202 | 19 | 
2 | C[N+](C)(C)CCOC(N)=O |  |  |  | PI [4]: 100%; inhibition [5]: 58%; inhibition [6]: 60%
3 | COc1ccc(C#CCO/N=C2\CN3CCC2C3)cc1OC (stereo not given) | 42449 | 303 | 140 | 
4 | COc1ccc(C#CCO/N=C2\CN3CCC2C3)cc1 (stereo not given) | 13101 | 119 | 110 | 
5 | FC(F)(F)c1cc(C#CCO/N=C2\CN3CCC2C3)cc(C(F)(F)F)c1 (stereo not given) |  |  |  | inhibition [7]: 18%; inhibition [8]: 55%
6 | COc1cccc(C#CCO/N=C2\CN3CCC2C3)c1 (stereo not given) | 6927 | 250 | 28 | PI [4]: 11%; inhibition [5]: 0%; inhibition [6]: 0%
7 | C(#Cc1ccc2c(c1)OCCO2)CO/N=C1\CN2CCC1C2 (stereo not given) |  |  |  | inhibition [7]: 0%; inhibition [8]: 39%
8 | FC(F)(F)c1cccc(C#CCO/N=C2\CN3CCC2C3)c1 (stereo not given) | 4237 | 134 | 32 | 
9 | Cc1ccc(C#CCO/N=C2\CN3CCC2C3)cc1 (stereo not given) | 11089 | 125 | 89 | 
10 | C(#Cc1ccc2c(c1)OCO2)CO/N=C1\CN2CCC1C2 (stereo not given) | 2547 | 110 | 23 | 
11 | Cc1ccccc1C#CCO/N=C1\CN2CCC1C2 (stereo not given) |  |  |  | inhibition [7]: 56%; inhibition [9]: 82%
12 | C(#Cc1ccccc1)CO/N=C1\CN2CCC1C2 (stereo not given) | 5012 | 109 | 46 | PI [4]: 1%; inhibition [5]: 0%; inhibition [6]: 0%
13 | O=[N+]([O-])c1cccc(C#CCO/N=C2\CN3CCC2C3)c1 (stereo not given) | 6399 | 226 | 28 | 
14 | Clc1cc(Cl)cc(C#CCO/N=C2\CN3CCC2C3)c1 (stereo not given) |  |  |  | inhibition [7]: 18%; inhibition [8]: 53%

Now from value to compound, other results behind:

Row | IC50 [1] [nM] | Ratio [2] | IC50 [3] [nM] | Compound | further results
15 | 4925 | 132 | 37 | Fc1cccc(C#CCO/N=C2\CN3CCC2C3)c1 (stereo not given) | 
16 | 6092 | 204 | 30 | Fc1ccc(C#CCO/N=C2\CN3CCC2C3)cc1 (stereo not given) | 
17 | 5195 | 186 | 28 | Cc1cccc(C#CCO/N=C2\CN3CCC2C3)c1 (stereo not given) | 
18 | 4443 | 159 | 28 | Fc1ccccc1C#CCO/N=C1\CN2CCC1C2 (stereo not given) | 
19 | 17658 | 81 | 219 | COc1ccccc1C#CCO/N=C1\CN2CCC1C2 (stereo not given) | 
20 | 6300 | 119 | 53 | Clc1ccc(C#CCO/N=C2\CN3CCC2C3)cc1 (stereo not given) | 
21 | 1305 | 107 | 12 | Clc1ccccc1C#CCO/N=C1\CN2CCC1C2 (stereo not given) | 
